Experimental data taken from paper PMC5084075 (ACS Central Science, 2016).
pIC50: −log10 of the molar value. Like-named read-outs stand apart in the source and are kept apart here.

Legend:
[1] = in vitro; design: metabolic stability in human liver microsomes, LC-MS, NADPH, 0.4 mg/mL protein; conditions: liver microsomes, human liver microsomes
Description: (§1) The two original GSK hits (OSM-S-5 and -6) and six NN compounds were evaluated for their kinetic solubility in phosphate buffer and their metabolic stability in human liver microsomes (Table SB5, Data Sets S20 and S21).

[2] = in vitro; design: metabolic stability in mouse liver microsomes, LC-MS, NADPH, 0.4 mg/mL protein; conditions: liver microsomes, mouse liver microsomes
Description: as §1

[3] = test system: Plasmodium falciparum Pfal (strain not named in column head); assay: microbe, parasite or virus in culture; design: asexual blood stage P. falciparum whole-cell growth inhibition
Description: To confirm the promise of the two starting points OSM-S-5 and -6, they were evaluated against 3D7 (drug-sensitive) and K1 (chloroquine resistant) strains of Plasmodium falciparum in a whole cell assay and against HEK-293 cells as a cytotoxicity marker (Table SB1, Biological Protocols; tables with the prefix “SB” may be found in the Supporting Information). Biological data may be browsed in a static data set taken as a snapshot for this paper (Data Sets S1 (Excel), S2 (SDF)), online in a database constructed through periodic batch uploads,[68] or in a “living database” to which may be added future data;[69] the latter may be visualized in a web browser[70] using an open source system that was recently deployed in the Wikipedia Chemical Structure Explorer,[71] or the data may be downloaded and visualized offline with proprietary (Figure S4)[72] or open source (Figure S5)[73] tools). The evaluation was performed in three different institutions using different assays and widely employed controls; controls are important to assess reproducibility and interassay variability[74] but also to minimize possible bias in evaluating compounds where there are pre-existing data from other researchers already in the public domain (Figure S6).[75]

[4] = read-out: 0.4 / CLint, in vitro / (mL/min/mg protein)
[5] = read-out: Protein Conc. (mg/mL): / Degradation half-life /

For Nc1ncnc2cc(-c3cccc(S(N)(=O)=O)c3)sc12 [OSM-S-106], the microsomal CLint [1, 4] was < 0.007 mL/min/mg, the half-life [1, 5] was > 247 min and the microsomal CLint [2, 4] was 0.0471 mL/min/mg. For the same molecule, the half-life [2, 5] was 36.8 min and the pIC50 [3] was 7.44.
